Columns and labels:
BCL6 [1] = biological target: T1, BCL6 (Homo sapiens (Human), UniProt P41182); test: BCL6 TR-FRET assay (BCL6-Avitag-Biotin / BCoR-Cy5 peptide); format: binding; settings: class symbols A-D; read-out: IC50 (nM)***
In short: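 After 30 min room-temperature preincubation of compound titrations with 2 nM biotinylated BCL6-Avitag, 100 nM Cy5-labelled BCoR peptide plus 2 nM Eu-streptavidin were added and TR-FRET read 2 h later. HEPES pH 7.5/125 mM NaCl buffer with Triton X, glutathione (or DTT) and BSA.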

BCL6 [2] = biological target: T1, BCL6; test: Immunofluorescence high content imaging of BCL6 degradation in T47D cells; format: cell-based; settings: for Dmax: T47D, maximum, class symbols A-C; for DC50: class symbols A-D, read-out: EC50 (nM)*
In short: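 T47D cells were treated 3 days at 37 °C with an 11-point 3-fold dilution series (top 0.1 or 1 μM), then fixed, permeabilized and immunostained for BCL6 with Alexa-488 secondary, CellMask and Hoechst. BCL6 signal was imaged at 10×, 4 fields/well, with top-hat smoothing.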

Compound `CNC(=O)COc1cc2cc(Nc3nc(N4CCC(CN5CCN(c6ccc7c(c6)CN(C6CCC(=O)NC6=O)C7=O)CC5)CC4)ncc3Cl)ccc2n(C)c1=O` (centres unmarked) [compound 151, 2-((6-((5-chloro-2-(4-((4-(2-(2,6-dioxopiperidin-3-yl)-1-oxoisoindolin-5-yl)piperazin-1-yl)methyl)piperidin-1-yl)pyrimidin-4-yl)amino)-1-methyl-2-oxo-1,2-dihydroquinolin-3-yl)oxy)-N-methylacetamide] has an IC50 (BCL6 [1]) of under 10 nM, a Dmax (BCL6 [2]) of 50 to 70% and a DC50 (BCL6 [2]) of 10 to 50 nM.

Work on `CC(=O)COc1cc2cc(Nc3nc(N4CCC(CN5CCN(c6ccc7c(c6)C(=O)N(C6CCC(=O)NC6=O)C7=O)CC5)CC4)ncc3Cl)ccc2n(C)c1=O` (centres unmarked) [compound 152, 5-(4-((1-(5-chloro-4-((1-methyl-2-oxo-3-(2-oxopropoxy)-1,2-dihydroquinolin-6-yl)amino)pyrimidin-2-yl)piperidin-4-yl)methyl)piperazin-1-yl)-2-(2,6-dioxopiperidin-3-yl)isoindoline-1,3-dione] yielded an IC50 (BCL6 [1]) of 50 to 100 nM, a Dmax (BCL6 [2]) of 50 to 70% and a DC50 (BCL6 [2]) of 10 to 50 nM.

Work on `CC(=O)COc1cc2cc(Nc3nc(N4CCC(C(=O)N5CCN(c6ccc7c(c6)C(=O)N(C6CCC(=O)NC6=O)C7=O)CC5)CC4)ncc3Cl)ccc2n(C)c1=O` (centres unmarked) [compound 153, 5-(4-(1-(5-chloro-4-((1-methyl-2-oxo-3-(2-oxopropoxy)-1,2-dihydroquinolin-6-yl)amino)pyrimidin-2-yl)piperidine-4-carbonyl)piperazin-1-yl)-2-(2,6-dioxopiperidin-3-yl)isoindoline-1,3-dione] yielded an IC50 (BCL6 [1]) of 50 to 100 nM, a Dmax (BCL6 [2]) of at least 70% and a DC50 (BCL6 [2]) of under 10 nM.

`CC(=O)COc1cc2cc(Nc3nc(N4CCC(CN5CCC(Oc6ccc7c(c6)C(=O)N(C6CCC(=O)NC6=O)C7=O)CC5)C4)ncc3Cl)ccc2n(C)c1=O` (centres unmarked) [compound 154, 5-((1-((1-(5-chloro-4-((1-methyl-2-oxo-3-(2-oxopropoxy)-1,2-dihydroquinolin-6-yl)amino)pyrimidin-2-yl)pyrrolidin-3-yl)methyl)piperidin-4-yl)oxy)-2-(2,6-dioxopiperidin-3-yl)isoindoline-1,3-dione] was tested, and the IC50 (BCL6 [1]) was 50 to 100 nM, the Dmax (BCL6 [2]) was under 50% and the DC50 (BCL6 [2]) was 10 to 50 nM.

`CNC(=O)CCc1cc2cc(Nc3nc(N4CCC(CN5CCN(c6ccc7c(c6)C(=O)N(C6CCC(=O)NC6=O)C7=O)CC5)CC4)ncc3Cl)ccc2n(C)c1=O` (centres unmarked) [compound 155, 3-(6-((5-chloro-2-(4-((4-(2-(2,6-dioxopiperidin-3-yl)-1,3-dioxoisoindolin-5-yl)piperazin-1-yl)methyl)piperidin-1-yl)pyrimidin-4-yl)amino)-1-methyl-2-oxo-1,2-dihydroquinolin-3-yl)-N-methylpropanamide] showed an IC50 (BCL6 [1]) of at least 100 nM and a DC50 (BCL6 [2]) of over 100 nM.

Compound `Cn1c(=O)cc(NC(C)(C)c2ncccn2)c2cc(Nc3nc(N4CCC(CN5CCN(c6ccc7c(c6)C(=O)N(C6CCC(=O)NC6=O)C7=O)CC5)CC4)ncc3Cl)ccc21` (centres unmarked) [compound 156, 5-(4-((1-(5-chloro-4-((1-methyl-2-oxo-4-((2-(pyrimidin-2-yl)propan-2-yl)amino)-1,2-dihydroquinolin-6-yl)amino)pyrimidin-2-yl)piperidin-4-yl)methyl)piperazin-1-yl)-2-(2,6-dioxopiperidin-3-yl)isoindoline-1,3-dione] has an IC50 (BCL6 [1]) of at least 100 nM, a Dmax (BCL6 [2]) of under 50% and a DC50 (BCL6 [2]) of over 100 nM.

Work on `CC(=O)COc1cc2cc(Nc3nc(N4CCC(N5CCC(N(C)CCOc6ccc7c(c6)CN(C6CCC(=O)NC6=O)C7=O)C5)CC4)ncc3Cl)ccc2n(C)c1=O` (centres unmarked) [compound 157, 3-(5-(2-((1-(1-(5-chloro-4-((1-methyl-2-oxo-3-(2-oxopropoxy)-1,2-dihydroquinolin-6-yl)amino)pyrimidin-2-yl)piperidin-4-yl)pyrrolidin-3-yl) (methyl)amino)ethoxy)-1-oxoisoindolin-2-yl)piperidine-2,6-dione] yielded an IC50 (BCL6 [1]) of under 10 nM, a Dmax (BCL6 [2]) of 50 to 70% and a DC50 (BCL6 [2]) of 10 to 50 nM.

In the case of `CC(=O)COc1cc2cc(Nc3nc(N4CCN(C5CCN(CCCOc6ccc7c(c6)CN(C6CCC(=O)NC6=O)C7=O)C5)CC4)ncc3Cl)ccc2n(C)c1=O` (centres unmarked) [compound 158, 3-(5-(3-(3-(4-(5-chloro-4-((1-methyl-2-oxo-3-(2-oxopropoxy)-1,2-dihydroquinolin-6-yl)amino)pyrimidin-2-yl)piperazin-1-yl)pyrrolidin-1-yl)propoxy)-1-oxoisoindolin-2-yl)piperidine-2,6-dione], the IC50 (BCL6 [1]) is reported as under 10 nM, the Dmax (BCL6 [2]) is reported as under 50% and the DC50 (BCL6 [2]) is reported as 10 to 50 nM.

`CNC(=O)COc1cc2cc(Nc3nc(N4CCC(OCCCCOc5cc(-c6scnc6C)ccc5CNC(=O)[C@@H]5C[C@@H](O)CN5C(=O)C(c5cc(C)no5)C(C)C)CC4)ncc3Cl)ccc2n(C)c1=O` (stereo partly drawn) [compound 159, (2S,4R)-N-(2-(4-((1-(5-chloro-4-((1-methyl-3-(2-(methylamino)-2-oxoethoxy)-2-oxo-1,2-dihydroquinolin-6-yl)amino)pyrimidin-2-yl)piperidin-4-yl)oxy)butoxy)-4-(4-methylthiazol-5-yl)benzyl)-4-hydroxy-1-(3-methyl-2-(3-methylisoxazol-5-yl)butanoyl)pyrrolidine-2-carboxamide] showed an IC50 (BCL6 [1]) of 10 to 50 nM, a Dmax (BCL6 [2]) of under 50% and a DC50 (BCL6 [2]) of over 100 nM.

`CC(=O)COc1cc2cc(Nc3nc(N4CCN(C5CCN(c6ccc7c(c6)C(=O)N(C6CCC(=O)NC6=O)C7=O)CC5)CC4)ncc3Cl)ccc2n(C)c1=O` (centres unmarked) [compound 160, 5-(4-(4-(5-chloro-4-((1-methyl-2-oxo-3-(2-oxopropoxy)-1,2-dihydroquinolin-6-yl)amino)pyrimidin-2-yl)piperazin-1-yl)piperidin-1-yl)-2-(2,6-dioxopiperidin-3-yl)isoindoline-1,3-dione] showed an IC50 (BCL6 [1]) of 10 to 50 nM, a Dmax (BCL6 [2]) of 50 to 70% and a DC50 (BCL6 [2]) of 10 to 50 nM.

For `CC(=O)COc1cc2cc(Nc3nc(N4CCN(C5CCCN(c6ccc7c(c6)C(=O)N(C6CCC(=O)NC6=O)C7=O)C5)CC4)ncc3Cl)ccc2n(C)c1=O` (centres unmarked) [compound 161, 5-(3-(4-(5-chloro-4-((1-methyl-2-oxo-3-(2-oxopropoxy)-1,2-dihydroquinolin-6-yl)amino)pyrimidin-2-yl)piperazin-1-yl)piperidin-1-yl)-2-(2,6-dioxopiperidin-3-yl)isoindoline-1,3-dione], the IC50 (BCL6 [1]) was 10 to 50 nM, the Dmax (BCL6 [2]) was under 50% and the DC50 (BCL6 [2]) was 10 to 50 nM.

Work on `CC(=O)COc1cc2cc(Nc3nc(N4CCC(CCN5CCN(c6ccc7c(c6)C(=O)N(C6CCC(=O)NC6=O)C7=O)CC5)CC4)ncc3Cl)ccc2n(C)c1=O` (centres unmarked) [compound 162, 5-(4-(2-(1-(5-chloro-4-((1-methyl-2-oxo-3-(2-oxopropoxy)-1,2-dihydroquinolin-6-yl)amino)pyrimidin-2-yl)piperidin-4-yl)ethyl)piperazin-1-yl)-2-(2,6-dioxopiperidin-3-yl)isoindoline-1,3-dione] yielded an IC50 (BCL6 [1]) of 10 to 50 nM, a Dmax (BCL6 [2]) of under 50% and a DC50 (BCL6 [2]) of 10 to 50 nM.

In the case of `CC(=O)COc1cc2cc(Nc3nc(N4CCN(C(=O)C5CCN(c6ccc7c(c6)C(=O)N(C6CCC(=O)NC6=O)C7=O)CC5)CC4)ncc3Cl)ccc2n(C)c1=O` (centres unmarked) [compound 163, 5-(4-(4-(5-chloro-4-((1-methyl-2-oxo-3-(2-oxopropoxy)-1,2-dihydroquinolin-6-yl)amino)pyrimidin-2-yl)piperazine-1-carbonyl)piperidin-1-yl)-2-(2,6-dioxopiperidin-3-yl)isoindoline-1,3-dione], the IC50 (BCL6 [1]) is reported as 10 to 50 nM, the Dmax (BCL6 [2]) is reported as 50 to 70% and the DC50 (BCL6 [2]) is reported as 10 to 50 nM.

Reference: US12310975B2, “Modulators of BCL6 proteolysis and associated methods of use” (Arvinas Operations, Inc., priority 2019, dated 2025)
